Test results taken from the NIST ThermoML archive (doi:10.1016/j.fluid.2016.01.035).
± gives the expanded uncertainty stated by the source.

What was measured:
[1] = Molar enthalpy of transition or fusion; details: Crystal; DSC
[2] = for vapor or sublimation pressure: Liquid, Transpiration method
[3] = molar enthalpy of vaporization or sublimation; details: 298.15 K; Crystal; TGA

Compound	Molar enthalpy of transition or fusion [1]	Normal melting temperature ([2]; Crystal, DTA)	molar enthalpy [3]	vapor or sublimation pressure ([2]; 340.2 K)	vapor or sublimation pressure ([2]; 343.2 K)	vapor or sublimation pressure ([2]; 348.2 K)	vapor or sublimation pressure ([2]; 353.1 K)	vapor or sublimation pressure ([2]; 358.2 K)	vapor or sublimation pressure ([2]; 363.2 K)	vapor or sublimation pressure ([2]; 368.1 K)	vapor or sublimation pressure ([2]; 370.2 K)	vapor or sublimation pressure ([2]; 373.2 K)	vapor or sublimation pressure ([2]; 376.2 K)
COc1cc(C=CC(=O)O)ccc1O [4-hydroxy-3-methoxycinnamic acid]	8.29 ± 0.191 kcal/mol	172.8 ± 0.5 °C	32.4 ± 0.478 kcal/mol										
COC(=O)C=Cc1ccc(O)c(OC)c1 [methyl 3-(4-hydroxy-3-methoxyphenyl)-2-propenoate]	5.62 ± 0.55 kcal/mol			9.7e-05 ± 4e-06 kPa	0.000128 ± 6e-06 kPa	0.00021 ± 9e-06 kPa	0.000324 ± 1.4e-05 kPa	0.000513 ± 2.2e-05 kPa	0.000769 ± 3.3e-05 kPa	0.00117 ± 5e-05 kPa	0.0014 ± 6e-05 kPa	0.00179 ± 8e-05 kPa	0.00229 ± 0.0001 kPa
